{"source": "patent US20050187172A1", "about": "“Combination of a Cox-2 inhibitor and a DNA topoisomerase I inhibitor for treatment of neoplasia” (priority 2003, published 2005)", "origin": "cited, not measured here", "key": {"[1]": {"conditions": "mice, single IV infusion"}, "[2]": {"conditions": "for Toxicity (reported toxic effects): Table 3, Toxicity column"}, "[3]": {"experiment": "not given", "remark": "listed apart in the source"}, "[4]": {"conditions": "Grade 2 or higher toxic effects"}, "[5]": {"conditions": "dose limiting hematological toxicity"}}, "note": "Counter-ions that a name gives are not always drawn. Like-named read-outs stand apart in the source and are kept apart here."}
{"smiles": "CC[C@@]1(O)C(=O)OCc2c1cc1n(c2=O)Cc2cc3c(CN(C)C)c(O)ccc3nc2-1", "note": "[Topotecan hydrochloride, (S)-10-((dimethylamino)methyl)-4-ethyl-4,9-dihydroxy-1H-pyrano (3′,4′:6,7)indolizino(1,2-B)quinoline-3,14-(4H,12H)-dione monohydrochloride]", "values": [{"measurement": "LD10", "setting": "[1]", "value": "pression. LD10: mice 75 mg/m^2"}, {"measurement": "Dose limiting toxicity (DLT)", "setting": "[2]; in vivo", "value": "DLT: Bone marrow sup-"}]}
{"smiles": "CC[C@@]1(O)C(=O)OCc2c1cc1n(c2=O)Cc2cc3c(CN(C)C)c(O)ccc3nc2-1", "note": "[Topotecan, 1H-Pyrano[3′,4′:6,7]indolizino[1,2-b]quinoline-3,14(4,H,12H)-dione, 10-[(dimethylamino)methyl]-4-ethyl-4,9-dihydroxy-, (S)-]", "values": [{"measurement": "Dose limiting toxicity (DLT)", "setting": "[2]; in vivo", "value": "Myelosup-pression dose-"}, {"measurement": "Maximally tolerated dose", "setting": "[2]; × 5 d every 3 to 4 wk", "value": "dose: 1.5 mg/m^2 × 5 d"}]}
{"smiles": "CCc1c2c(nc3ccc(OC(=O)N4CCC(N5CCCCC5)CC4)cc13)-c1cc3c(c(=O)n1C2)COC(=O)[C@]3(O)CC", "note": "[Irinotecan hydrochloride, (4S)-4,11-diethyl-4-hydroxy-9-((4-piperidinopiperidino)carbonyloxy)-1H-pyrano(3′,4′:6,7)indolizino(1,2-b)quinoline-3,14(4H,12H)dione hydrochloride.]", "values": [{"measurement": "Lethality in mice", "value": "Lethality in mice: 111 mg/kg"}]}
{"smiles": "CC[C@@]1(O)C(=O)OCc2c1cc1n(c2=O)Cc2cc3c([N+](=O)[O-])cccc3nc2-1", "note": "[rubitecan, 1H-Pyrano[3′,4′:6,7]indolizino[1,2-b]quinoline-3,14(4H,12H)-dione, -4-ethyl-4-hydroxy-10-nitro-, (S)-]", "values": [{"measurement": "chemical cystitis", "setting": "[3]; [4]", "value": "cystitis (25%),"}, {"measurement": "diarrhea", "setting": "[3]; [4]", "value": "diarrhea (32%), chemical"}, {"measurement": "neutropenic sepsis", "setting": "[3]; [4]", "value": "(21%), and weight loss"}, {"measurement": "weight loss", "setting": "[3]; [4]", "value": "(18%)."}, {"measurement": "grade 4 anemia, share of patients", "setting": "[3]; [5]", "value": "grade 4 anemia in 29%"}, {"measurement": "thrombocytopenia (grade 4), share of patients", "setting": "[3]; [5]", "value": "18%. Grade 2 or higher"}, {"measurement": "Maximum tolerated dose", "setting": "[2]; over five consecutive days repeated every week", "value": "dose: 1.5 mg/m2/day"}]}
{"smiles": "O=C1c2c(c3c4ccc(O)cc4n([C@@H]4O[C@H](CO)[C@@H](O)[C@H](O)[C@H]4O)c3c3[nH]c4cc(O)ccc4c23)C(=O)N1NC(CO)CO", "note": "[J 107088, 5H-Indolo[2,3-a]pyrrolo[3,4-c]carbazole-5,7(6H)-dione, 12-β-D-glucopyranosyl-12,13-dihydro-2,10-dihydroxy-6-[[2-hydroxy-1-(hydroxymethyl)ethyl]amino]-]", "values": [{"measurement": "Maximum tolerated dose", "setting": "[2]; in vivo", "value": "dose: 7.5 mg/m2"}]}
{"smiles": "CN(C)CCNC(=O)c1cccc2cc3ccccc3nc12.Cl.Cl", "note": "[XR-5000, 4-Acridinecarboxamide, N-[2-(dimethylamino)ethyl]-, dihydrochloride]", "values": [{"measurement": "Toxicity (reported toxic effects)", "setting": "[2]", "value": "infusion-related arm pain"}]}
{"smiles": "CC[C@@]1(O)C(=O)OCc2c1cc1n(c2=O)Cc2cc3c(N)cccc3nc2-1", "note": "[9-aminocamptothecin, 1H-Pyrano[3′,4′:6,7]indolizino[1,2-b]quinoline-3,14(4H,12H)-dione, 10-amino-4-ethyl-4-hydroxy-, (S)-]", "values": [{"measurement": "Dose limiting toxicity (DLT)", "setting": "[2]; in vivo", "value": "neutropenia."}, {"measurement": "Maximum tolerated dose", "setting": "[2]; in vivo", "value": "45 mug/square mug/square metre/hr"}]}
{"smiles": "CC[C@@]1(O)C(=O)OCc2c1cc1n(c2=O)Cc2c-1nc1cc3c(cc1c2CN1CCN(C)CC1)OCCO3", "note": "[GG211]", "values": [{"measurement": "Dose limiting toxicity (DLT)", "setting": "[2]; in vivo", "value": "Hematologic toxicity"}]}
{"smiles": "CCc1c2c(nc3ccc(OC(=O)N4CCC(N5CCCCC5)CC4)cc13)-c1cc3c(c(=O)n1C2)COC(=O)[C@]3(O)CC", "note": "[Irinotecan]", "values": [{"measurement": "Toxicity (reported toxic effects)", "setting": "[2]", "value": "Diarrhea and myelosup-"}]}
